Test results as given in article PMC2734971 (Pharmaceutical research, 2009).
Where no end group is shown, it is not given here.

Columns and labels:
[1] = test system: MDA-MB-231 tumor xenografts; test: In vivo MR T1-mapping of MDA-MB-231 tumor-bearing SCID mice; parameters: species or system SCID mice (human breast cancer xenograft)
kidney = test: T1-weighted coronal MR imaging, kidney signal; type: in vivo, SCID mice; conditions: up to 24 h; 0.03 mmol-Gd/kg i.v.; 9.4 tesla
[2] = test system: solid tumors / αVβ3 integrins; conditions: prostate tumors; cited from earlier work

Substance	T1 at tumor site, targetable vs non-targetable, other time points ([1]; 10 min, 30 min, 1, 6, 24 h, 0.03 mmol-Gd/kg i.v.)	mean T1 value at tumor site, 2 h post-injection ([1]; 2 h after i.v. injection, 0.03 mmol-Gd/kg, 9.4 tesla, 4 mice/group, mean±SD)	signal enhancement in kidney (kidney)	enhancement of tumor accumulation vs copolymers without targeting peptide [2]
P-RGDfK-Gd: HPMA copolymer with Gd-DOTA and RGDfK side chains; Mw 43,000; 0.428 mmol/g RGDfK, 0.14 mmol/g Gd	no significant difference	1950 ± 189.8 ms	signal enhancement in kidney up to 24 h	–
KACDCRGDCFCG (also: bicyclic or more (positions not given here)) [RGD4C]	–	–	–	four to fivefold enhancement
